Results: ChEMBL document CHEMBL1201862, “PubChem BioAssay data set” (2004)
Calls of active or inactive are those of the source.

Legend:
[1] = target: Botulinum neurotoxin type F (Clostridium botulinum, UniProt P30996); assay: High-throughput multiplex microsphere dose response for inhibitors of toxin protease, specifically Botulinum neurotoxin light chain F protease, compounds from Cherry Pick 02.; format: functional; conditions: read-out: EC50_MICROM
Paired box protein Pax-8 = Paired box protein Pax-8 (Homo sapiens, UniProt Q06710); assay: PAX8 transcriptional activity inhibition in RMG-I – RMG-I cells, luciferase, cherry-pick, dose response (AID 687027); format: functional, cell-based;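 note: luciferase reporter driven by Pax8 target thyroperoxidase promoter measured by SteadyGlo luminescence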
Chain of Paired box protein Pax-8 (Q06710 whole entry): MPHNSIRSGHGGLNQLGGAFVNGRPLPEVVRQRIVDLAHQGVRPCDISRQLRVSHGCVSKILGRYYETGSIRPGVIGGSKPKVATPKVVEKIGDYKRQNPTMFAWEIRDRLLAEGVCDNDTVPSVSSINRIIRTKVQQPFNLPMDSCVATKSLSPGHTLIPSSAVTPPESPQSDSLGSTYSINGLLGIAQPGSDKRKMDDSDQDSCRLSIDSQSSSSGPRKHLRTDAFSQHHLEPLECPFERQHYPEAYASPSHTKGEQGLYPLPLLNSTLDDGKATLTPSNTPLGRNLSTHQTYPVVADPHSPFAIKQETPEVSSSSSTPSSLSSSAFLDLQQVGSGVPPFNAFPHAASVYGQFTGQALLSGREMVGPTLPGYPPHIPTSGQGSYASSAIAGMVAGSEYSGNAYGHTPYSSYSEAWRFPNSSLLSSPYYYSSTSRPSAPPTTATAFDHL

[2] = OVCAR8 cell viability loss – plate reader, dry powder samples, PAX8 project, dose response (AID 743197); format: functional, cell-based; conditions: OVCAR-8
[3] = IGROV1 cell killing – plate reader, dry powder samples, PAX8 inhibitor project, dose response (AID 743043); format: functional, cell-based; conditions: IGROV-1
[4] = OVCAR-3 cell viability loss – plate reader, dry powder samples, PAX8 inhibitor project, dose response (AID 743044); format: functional, cell-based
[5] = A2780 cell killing – plate reader, dry powder samples, cytotoxicity control, dose response (AID 743046); format: functional, cell-based
[6] = toxicity toward immortalized ovarian surface epithelium – cell-based, plate reader, dry powder samples, cytotoxicity control for PAX8 inhibitor project, dose response (AID 743045); format: functional
[7] = inhibition of Env-driven cell fusion – HIV entry, plate reader, dry powder, dose response (AID 687023); format: functional, cell-based
[8] = HeLa cell viability loss – plate reader, dry powder, cytotoxicity control, dose response (AID 651946); format: functional, cell-based
[9] = inhibitors of non-replicating M. tuberculosis, dose response, luciferase, dry powder (AID 651620); format: functional; conditions: Mycobacterium tuberculosis
[10] = inhibitors of non-replicating M. tuberculosis, dose response, luciferase, dry powder (AID 651619); format: functional; conditions: Mycobacterium tuberculosis
[11] = growth inhibition of replicating M. tuberculosis, dose response, counter-screen, dry powder, IC90 (AID 651617); format: functional; conditions: Mycobacterium tuberculosis
[12] = general mammalian cell viability loss – inhibitor set, cherry-pick, set 2, cytotoxicity control for miR-122 modulator project, dose response (AID 720697); format: functional, cell-based
[13] = viability loss in HepG2 hepatoma cells – cell-based, cherry-picks, set 5, cytotoxicity control, dose response (AID 1053118); format: functional
[14] = blockers of FN fibrillogenesis by fibroblasts – AH1F cells, Alexa488-FN fluorescence, cherry-picks, dose response (AID 1035475); format: functional, cell-based
[15] = viability loss in HEK293 kidney cells – cell-based, cherry-picks, set 5, cytotoxicity control, dose response (AID 1053117); format: functional
[16] = Trypanosoma cruzi replication inhibitors in host cells – cell-based, plate reader, dry powder samples, dose response (AID 651845); format: functional
[17] = T. cruzi growth inhibition in host cells, dose response, cell-based, plate reader, dry powder, set 2 (AID 652275); format: functional
[18] = anti-trypanosomal activity in BESM host cells – imaging, CA-I/72 strain, bovine embryo skeletal muscle, dry powder, dose response (AID 651885); format: functional, cell-based

Chain of Botulinum neurotoxin type F (P30996 1-436 limits assumed): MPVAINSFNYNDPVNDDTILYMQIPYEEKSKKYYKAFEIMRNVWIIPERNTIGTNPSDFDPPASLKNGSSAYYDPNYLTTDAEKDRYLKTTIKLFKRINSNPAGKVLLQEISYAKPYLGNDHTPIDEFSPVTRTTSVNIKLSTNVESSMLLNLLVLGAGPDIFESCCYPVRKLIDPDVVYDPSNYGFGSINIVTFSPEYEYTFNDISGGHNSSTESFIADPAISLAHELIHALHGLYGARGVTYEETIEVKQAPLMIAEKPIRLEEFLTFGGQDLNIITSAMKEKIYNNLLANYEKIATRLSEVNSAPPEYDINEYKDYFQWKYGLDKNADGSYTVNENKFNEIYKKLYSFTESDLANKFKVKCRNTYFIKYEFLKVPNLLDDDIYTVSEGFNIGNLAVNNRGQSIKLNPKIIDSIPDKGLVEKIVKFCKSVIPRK

SMILES: COc1ccc(C(CNC(=O)c2cc(S(=O)(=O)N3CCCCC3)ccc2C)N2CCCC2)cc1 (configuration not stated)
- EC50 [1]: > 20 µM (inactive)

SMILES: C[C@H]1CCCCO[C@H](CN(C)Cc2ccc(C(F)(F)F)cc2)[C@@H](C)CN([C@@H](C)CO)C(=O)c2cc(NC(=O)Cc3ccccc3)ccc2O1
- AC50 (Paired box protein Pax-8): 7.6 µM (active)
- AC50 [2]: 53 µM (active)
- AC50 [3]: 31.9 µM (active)
- AC50 [4]: 29.7 µM (active)

SMILES: COc1ccc(-c2ccc3c(c2)[C@@H]2[C@@H](CCN2C(=O)NC2CCCCC2)[C@H](CO)N3C)cc1
- AC50 (Paired box protein Pax-8): 10.7 µM (active)
- AC50 [5]: 32.8 µM (active)
- AC50 [6]: 46.8 µM (active)
- AC50 [2]: > 60 µM (inactive)
- AC50 [4]: 49.5 µM (active)

SMILES: CCOc1ccc(OCC)c(S(=O)(=O)NCc2ccncc2)c1
- AC50 [7]: > 70 µM (inactive)

SMILES: [O-][S+](Cc1ccccc1)c1nnc(-c2ccccc2)o1 (configuration not stated)
- AC50 [8]: 32.2 µM (active)
- IC90 [9]: 1 µM (active)
- IC90 [10]: 1 µM (active)
- IC90 [11]: 31 µM (active)

SMILES: CCCNC(=O)Nc1ccc2c(c1)C(=O)N(C)[C@@H]1CC[C@@H](CC(=O)NCC3CCCCC3)O[C@@H]1CO2
- AC50 [12]: 0.456 µM (active)

SMILES: C[C@H](CO)N1C[C@H](C)[C@H](CN(C)Cc2ccc(-c3ccccc3)cc2)Oc2ccc(NC(=O)CCCN(C)C)cc2C1=O
- AC50 [13]: 11.8 µM (active)
- AC50 [14]: 30.8 µM (active)
- AC50 [15]: 12.7 µM (active)

SMILES: C[C@@H]1CN([C@@H](C)CO)C(=O)c2cccc(NC(=O)c3ccncc3)c2O[C@H]1CN(C)Cc1ccc2c(c1)OCO2
- AC50 [16]: 0.0571 µM (active)
- AC50 [17]: 0.017 µM (active)
- IC50 [18]: 0.0565 µM (active)
